Patent US5319085A, “Quinoline derivative having serotonin-3 receptor antagonizing activity” (priority 1990, dated 1994)

Legend:
[1] = system: 5HT3 receptor; experiment: 5HT3 receptor binding test, [3H] quipazine, NG108-15 cell membrane fraction; set-up: species or system rat; details: for Inhibition Rate (%) (Concentration 10^-7 M) / Inhibition Rate (%) (Concentration 10^-8 M): inhibition of 2 nM [3H] quipazine binding; for Ki: [3H] quipazine, Cheng Prusoff equation, 37° C., 60 minutes
Method: Using rat neuroblastoma-glyoma NG108-15 cell membrane fraction, the binding activities of the test compounds to 5HT3 receptor were examined.
A membrane fraction of NG108-15 cells was prepared according to the method of Neijt et al. [Naunyn-Schmiedeberg's Arch. Parmacol. 337, 493-499 (1988)].
The receptor binding experiment was performed using [^3 H] quipazine [J. Neurochem., 52, 1787 (1989)], a high affinity ligand to 5HT3 receptor.
A membrane fraction obtained from 4×10^5 NG108-15 cells was suspended in 1 ml of 20 mM Tris-hydrochloride buffer (pH 7.5) containing 154 mM sodium chloride. Then, 2 nM [^3 H] quipazine (2519.7 GBq/mmol; Du Pont Co., Ltd.) and various concentrations of the test compound were added to the suspension followed by incubating at 37° C. for 60 minutes. Then, 4 ml of an ice-cooled buffer was added to terminate the reaction and then the mixture was filtered through CF/C glass fiber filter (Whatmann Co., Ltd.). The filter was washed with the buffer, and put in a scintillation vial. Scintisol EX-H (Wako Pure Chemicals, Inc.) was added to the scintillation vial. Radioactivity on the filter was counted in a liquid scintillation counter.
An inhibition rate of the [^3 H] quipazine binding for the test compound was estimated according to the equation; [formula]
Ki values were estimated based on the resultant inhibition rates according to the Cheng Prusoff equation.
In this test, the comparison was made between Compound (I) and Compound C disclosed in Japanese Published Unexamined Patent Application No. 72886/85 as the reference compound.

[2] = system: Cisplatin-induced vomiting; experiment: Activity against Cisplatin-induced vomiting; type: in vivo, Suncus mirinus; details: for Number of Vomiting (mean ± S.E.M.): 5 to 120 minutes; for Latency (min.) (mean ± S.E.M.): time to first vomiting
Method: Female and male Suncus mirinus animals weighing 23 to 68 g were used, one group consisting of 5 to 10 animals. According to the method of Matsuki et al. (Japan J. Pharmacol., 48, 303 (1988)], the animals were isolated in metal mesh cage (one animal/one cage). One hour after, the test compound or physiological saline (control) was intraperitoneally administered (i.p.) in a volume of 10 ul/g of body weight. Further 30 minutes after administration of the test compound, Cisplatin (20 or 40 mg/kg) was intraperitoneally administered. After administration of Cisplatin, a time period (latency) for the first vomiting and the number of frequencies of vomiting caused in the period of 5 to 120 minutes after administration, were determined. The latency and the number of frequencies in the test compound administered group were compared with those in the control group. The test of significance was performed by Student's t-test.

[3] = system: ddY strain male mice; experiment: Acute toxicity, minimum lethal dose; type: in vivo; details: mortality for 7 days
Method: The test Compound was orally and intraperitoneally administered to ddY strain male mice weighing 20 to 25 g. MLD (Minimum Lethal Dose) was determined by observing the mortality for 7 days after the administration.

[4] = 0.1 mg/kg i.p., Cisplatin 40 mg/kg
[5] = 0.3 mg/kg i.p., Cisplatin 40 mg/kg
[6] = 1.0 mg/kg i.p., Cisplatin 40 mg/kg
[7] = 10.0 mg/kg i.p., Cisplatin 40 mg/kg
[8] = 0.01 mg/kg i.p., Cisplatin 20 mg/kg
[9] = 0.03 mg/kg i.p., Cisplatin 20 mg/kg
[10] = 0.1 mg/kg i.p., Cisplatin 20 mg/kg
[11] = 0.3 mg/kg i.p., Cisplatin 20 mg/kg
[12] = 1.0 mg/kg i.p., Cisplatin 20 mg/kg

SMILES | Inhibition Rate (%) (Concentration 10^-7 M) [1] | Ki [1] [nM] | MLD (Minimum Lethal Dose) ([3]; i.p.) [mg/kg] | MLD (Minimum Lethal Dose) ([3]; p.o.) [mg/kg] | Inhibition Rate (%) (Concentration 10^-8 M) [1] | further results
CN1[C@@H]2CC[C@H]1C[C@@H](OC(=O)c1cnc3ccccc3c1O)C2 [5S'a, Endo-(8-methyl-8-azabicyclo[3.2.1]oct-3-yl) 4-hydroxy-3-quinolinecarboxylate] | 107 | 6.1 | > 300 | > 100 | – | Number of Vomiting (mean ± S.E.M.) [2, 4]: 29.6 ± 3.5; Latency (min.) (mean ± S.E.M.) [2, 4]: 41.4 ± 0.7 min; Number of Vomiting (mean ± S.E.M.) [2, 5]: 13.2 ± 4.8; Latency (min.) (mean ± S.E.M.) [2, 5]: 69.6 ± 13.4 min; Number of Vomiting (mean ± S.E.M.) [2, 6]: 4.3 ± 2.4; Latency (min.) (mean ± S.E.M.) [2, 6]: 103.5 ± 10.3 min; Number of Vomiting (mean ± S.E.M.) [2, 7]: 7.6 ± 7.6; Latency (min.) (mean ± S.E.M.) [2, 7]: 105.1 ± 14.9 min
CN1[C@@H]2CCC[C@H]1C[C@@H](OC(=O)c1cnc3ccccc3c1)C2 [CSa, Endo-(9-methyl-9-azabicyclo[3.3.1]non-3-yl) 3-quinolinecarboxylate, reference compound] | 84 | 29 | – | – | 12 | –
CCCCOc1cc(C(=O)O[C@H]2C[C@H]3CC[C@@H](C2)N3C)c2ccccc2n1 [Compound 1Sa, Endo-(8-methyl-8-azabicyclo[3.2.1]oct-3-yl) 2-n-butoxy-4-quinolinecarboxylate] | 104 | 0.39 | 200 | 100 | 99 | –
CCCOc1cc(C(=O)O[C@H]2C[C@H]3CC[C@@H](C2)N3C)c2ccccc2n1 [Compound 2Sa, Endo-(8-methyl-8-azabicyclo[3.2.1]oct-3-yl) 2-n-propoxy-4-quinolinecarboxylate] | 104 | 0.32 | 100 | 100 | 101 | –
CC(C)Oc1cc(C(=O)O[C@H]2C[C@H]3CC[C@@H](C2)N3C)c2ccccc2n1 [Compound 3Sa, Endo-(8-methyl-8-azabicyclo[3.2.1]oct-3-yl) 2-isopropoxy-4-quinolinecarboxylate] | 104 | 0.31 | 200 | > 100 | 101 | –
COc1cc(C(=O)O[C@H]2C[C@H]3CC[C@@H](C2)N3C)c2ccccc2n1 [Compound 4Sa, Endo-(8-methyl-8-azabicyclo[3.2.1]oct-3-yl) 2-methoxy-4-quinolinecarboxylate] | 104 | 0.58 | 200 | 50 | 98 | –
CN1[C@@H]2CC[C@H]1C[C@@H](NC(=O)c1cnc3ccccc3c1O)C2 [Compound 6Sa, Endo-N-(8-methyl-8-azabicyclo[3.2.1]oct-3-yl)-4-hydroxy-3-quinolinecarboxamide] | 101 | 2.1 | > 300 | > 100 | 89 | Number of Vomiting (mean ± S.E.M.) [2, 8]: 10.0 ± 4.0; Latency (min.) (mean ± S.E.M.) [2, 8]: 58.2 ± 9.9 min; Number of Vomiting (mean ± S.E.M.) [2, 9]: 8.2 ± 1.4; Latency (min.) (mean ± S.E.M.) [2, 9]: 52.6 ± 4.2 min; Number of Vomiting (mean ± S.E.M.) [2, 10]: 7.4 ± 2.6; Latency (min.) (mean ± S.E.M.) [2, 10]: 85.7 ± 9.7 min; Number of Vomiting (mean ± S.E.M.) [2, 11]: 0.0 ± 0; Latency (min.) (mean ± S.E.M.) [2, 11]: 120.0 ± 0 min; Number of Vomiting (mean ± S.E.M.) [2, 12]: 0.0 ± 0; Latency (min.) (mean ± S.E.M.) [2, 12]: 120.0 ± 0 min
CC(C)COc1cc(C(=O)O[C@H]2C[C@H]3CC[C@@H](C2)N3C)c2ccccc2n1 [Compound 7Sa, Endo-(8-methyl-8-azabicyclo[3.2.1]oct-3-yl) 2-isobutoxy-4-quinolinecarboxylate] | 108 | 0.44 | 300 | > 100 | 101 | –
CCCCCOc1cc(C(=O)O[C@H]2C[C@H]3CC[C@@H](C2)N3C)c2ccccc2n1 [Compound 8Sa, Endo-(8-methyl-8-azabicyclo[3.2.1]oct-3-yl) 2-n-pentyloxy-4-quinolinecarboxylate] | 97 | 0.86 | > 300 | > 100 | 94 | –
CCCCCCOc1cc(C(=O)O[C@H]2C[C@H]3CC[C@@H](C2)N3C)c2ccccc2n1 [Compound 9Sa, Endo-(8-methyl-8-azabicyclo[3.2.1]oct-3-yl) 2-n-hexyloxy-4-quinolinecarboxylate] | 97 | 3.2 | > 300 | 50 | 74 | –
CCOc1cc(C(=O)O[C@H]2C[C@H]3CC[C@@H](C2)N3C)c2ccccc2n1 [Compound 10Sa, Endo-(8-methyl-8-azabicyclo[3.2.1]oct-3-yl) 2-ethoxy-4-quinolinecarboxylate] | 99 | 0.88 | 100 | 50 | 96 | –
